This passage reports IC50 results from patent US20240199649A1 (Biosplice Therapeutics, Inc., priority 2022, published 2024).

SMILES strings stand for the structures.

This experiment addresses recombinant DYRK1A kinase (Homo sapiens (Human), UniProt Q13627). As to the kind of experiment: DYRK1A kinase assay (Ser/Thr 18 peptide Z-lyte FRET assay). Particulars: DYRK1A 0.25 μg/mL, ATP 15 μM, Ser/Thr peptide 18 4 μM; one hour at room temperature; 11-point dose-response, duplicate. In kind it is biochemical. The method, boiled down:
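Z-lyte FRET assay on Ser/Thr 18 peptide, kinase activity read as coumarin/fluorescein emission ratio; compounds incubated 1 h at room temperature, then development reagent 1 h, in duplicate. Phosphorylated and unphosphorylated peptide served as controls; IC50 by non-linear regression of dose-response curves.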
For `Cc1nc2ccc(-c3ccn4nc(N[C@@H]5CN(C6COC6)C[C@@H]5F)nc(N)c34)nc2n1CC(F)(F)F` [Compound 763, N^2-((3R,4S)-4-Fluoro-1-(oxetan-3-yl)pyrrolidin-3-yl)-5-(2-methyl-3-(2,2,2-trifluoroethyl)-3H-imidazo[4,5-b]pyridin-5-yl)pyrrolo[2,1-f][1,2,4]triazine-2,4-diamine], the IC50 amounted to 1.4 nM.

As to `CC(=O)N1CC[C@H](Nc2nc(N)c3c(-c4ccc5nc(C)n(CC(F)(F)F)c5n4)ccn3n2)[C@H](F)C1` [Compound 777, 1-((3R,4S)-4-((4-Amino-5-(2-methyl-3-(2,2,2-trifluoroethyl)-3H-imidazo[4,5-b]pyridin-5-yl)pyrrolo[2,1-f][1,2,4]triazin-2-yl)amino)-3-fluoropiperidin-1-yl)ethan-1-one], the IC50 amounted to 1.2 nM.

Take `Cc1nc2ccc(-c3ccn4nc(N[C@H]5CCN(C6COC6)C[C@H]5F)nc(N)c34)nc2n1CC(F)(F)F` [Compound 780, N^2-((3R,4S)-3-Fluoro-1-(oxetan-3-yl)piperidin-4-yl)-5-(2-methyl-3-(2,2,2-trifluoroethyl)-3H-imidazo[4,5-b]pyridin-5-yl)pyrrolo[2,1-f][1,2,4]triazine-2,4-diamine]: the IC50 worked out at 1.2 nM.

With `Cc1nc2ccc(-c3ccn4nc(N[C@@H]5CCN(C6COC6)CC5(F)F)nc(N)c34)nc2n1CC(F)(F)F` [Compound 792, (R)—N^2-(3,3-Difluoro-1-(oxetan-3-yl)piperidin-4-yl)-5-(2-methyl-3-(2,2,2-trifluoroethyl)-3H-imidazo[4,5-b]pyridin-5-yl)pyrrolo[2,1-f][1,2,4]triazine-2,4-diamine], the IC50 is 4.8 nM.

As to `C[C@]1(O)CC[C@H](Nc2nc(N)c3c(-c4ccc5nnn(CC(F)F)c5n4)ccn3n2)CC1` [Compound 816, (1r,4r)-4-((4-Amino-5-(3-(2,2-difluoroethyl)-3H-[1,2,3]triazolo[4,5-b]pyridin-5-yl)pyrrolo[2,1-f][1,2,4]triazin-2-yl)amino)-1-methylcyclohexan-1-ol], the IC50 turned out to be 1.3 nM.

With `Nc1nc(N[C@H]2CCN(C3COC3)C[C@H]2F)nn2ccc(-c3ccc4nnn(CC(F)F)c4n3)c12` [Compound 842, 5-(3-(2,2-Difluoroethyl)-3H-[1,2,3]triazolo[4,5-b]pyridin-5-yl)-N^2-((3R,4S)-3-fluoro-1-(oxetan-3-yl)piperidin-4-yl)pyrrolo[2,1-f][1,2,4]triazine-2,4-diamine], the IC50 was found to be 1.5 nM.

For the compound `CN1CC[C@@H](Nc2nc(N)c3c(-c4ccc5nnn(CC(F)F)c5n4)ccn3n2)C(F)(F)C1` [Compound 850, (R)—N^2-(3,3-Difluoro-1-methylpiperidin-4-yl)-5-(3-(2,2-difluoroethyl)-3H-[1,2,3]triazolo[4,5-b]pyridin-5-yl)pyrrolo[2,1-f][1,2,4]triazine-2,4-diamine], the IC50 amounted to 0.6 nM.

Take `CC(=O)N1CC[C@@H](Nc2nc(N)c3c(-c4ccc5nnn(CC(F)F)c5n4)ccn3n2)C(F)(F)C1` [Compound 853, (R)-1-(4-((4-Amino-5-(3-(2,2-difluoroethyl)-3H-[1,2,3]triazolo[4,5-b]pyridin-5-yl)pyrrolo[2,1-f][1,2,4]triazin-2-yl)amino)-3,3-difluoropiperidin-1-yl)ethan-1-one]: the half-maximal inhibitory concentration (IC50) worked out at 1.5 nM.

`Nc1nc(N[C@@H]2CCN(C3COC3)CC2(F)F)nn2ccc(-c3ccc4nnn(CC(F)F)c4n3)c12` [Compound 854, (R)—N^2-(3,3-Difluoro-1-(oxetan-3-yl)piperidin-4-yl)-5-(3-(2,2-difluoroethyl)-3H-[1,2,3]triazolo[4,5-b]pyridin-5-yl)pyrrolo[2,1-f][1,2,4]triazine-2,4-diamine]: the IC50 came out at 2.1 nM.

Turning to `CN1CC[C@@H](Nc2nc(N)c3c(-c4ccc5ncn(CCF)c5n4)ccn3n2)C(F)(F)C1` [Compound 985, (R)—N^2-(3,3-Difluoro-1-methylpiperidin-4-yl)-5-(3-(2-fluoroethyl)-3H-imidazo[4,5-b]pyridin-5-yl)pyrrolo[2,1-f][1,2,4]triazine-2,4-diamine], the IC50 was 1.5 nM.

In the case of `C[C@]1(O)CC[C@H](Nc2nc(N)c3c(-c4ccc5ncn(CC(F)F)c5n4)ccn3n2)CC1` [Compound 986, (1r,4r)-4-((4-Amino-5-(3-(2,2-difluoroethyl)-3H-imidazo[4,5-b]pyridin-5-yl)pyrrolo[2,1-f][1,2,4]triazin-2-yl)amino)-1-methylcyclohexan-1-ol], the IC50 came out at 0.7 nM.

With `CC(=O)N1C[C@H](F)[C@H](Nc2nc(N)c3c(-c4ccc5ncn(CC(F)F)c5n4)ccn3n2)C1` [Compound 987, 1-((3R,4S)-3-((4-Amino-5-(3-(2,2-difluoroethyl)-3H-imidazo[4,5-b]pyridin-5-yl)pyrrolo[2,1-f][1,2,4]triazin-2-yl)amino)-4-fluoropyrrolidin-1-yl)ethan-1-one], the IC50 was 0.8 nM.

Consider `Nc1nc(N[C@@H]2CN(C3COC3)C[C@@H]2F)nn2ccc(-c3ccc4ncn(CC(F)F)c4n3)c12` [Compound 988, 5-(3-(2,2-Difluoroethyl)-3H-imidazo[4,5-b]pyridin-5-yl)-N^2-((3R,4S)-4-fluoro-1-(oxetan-3-yl)pyrrolidin-3-yl)pyrrolo[2,1-f][1,2,4]triazine-2,4-diamine], for which the IC50 amounted to 0.6 nM.

Take `Nc1nc(N[C@H]2CCN(C3COC3)C[C@H]2F)nn2ccc(-c3ccc4ncn(CC(F)F)c4n3)c12` [Compound 990, 5-(3-(2,2-Difluoroethyl)-3H-imidazo[4,5-b]pyridin-5-yl)-N^2-((3R,4S)-3-fluoro-1-(oxetan-3-yl)piperidin-4-yl)pyrrolo[2,1-f][1,2,4]triazine-2,4-diamine]: the IC50 was determined as 0.6 nM.

As to `CN1CC[C@@H](Nc2nc(N)c3c(-c4ccc5ncn(CC(F)F)c5n4)ccn3n2)C(F)(F)C1` [Compound 991, (R)—N^2-(3,3-Difluoro-1-methylpiperidin-4-yl)-5-(3-(2,2-difluoroethyl)-3H-imidazo[4,5-b]pyridin-5-yl)pyrrolo[2,1-f][1,2,4]triazine-2,4-diamine], the IC50 worked out at 0.4 nM.

As for `CC(=O)N1CC[C@@H](Nc2nc(N)c3c(-c4ccc5ncn(CC(F)F)c5n4)ccn3n2)C(F)(F)C1` [Compound 992, (R)-1-(4-((4-Amino-5-(3-(2,2-difluoroethyl)-3H-imidazo[4,5-b]pyridin-5-yl)pyrrolo[2,1-f][1,2,4]triazin-2-yl)amino)-3,3-difluoropiperidin-1-yl)ethan-1-one], the IC50 was 0.7 nM.

Consider `Nc1nc(N[C@@H]2CCN(C3COC3)CC2(F)F)nn2ccc(-c3ccc4ncn(CC(F)F)c4n3)c12` [Compound 993, (R)—N^2-(3,3-Difluoro-1-(oxetan-3-yl)piperidin-4-yl)-5-(3-(2,2-difluoroethyl)-3H-imidazo[4,5-b]pyridin-5-yl)pyrrolo[2,1-f][1,2,4]triazine-2,4-diamine], for which the IC50 was found to be 0.6 nM.

On to `CN1CC[C@@H](Nc2nc(N)c3c(-c4ccc5ncn(CC(F)(F)F)c5n4)ccn3n2)C(F)(F)C1` [Compound 994, (R)—N^2-(3,3-Difluoro-1-methylpiperidin-4-yl)-5-(3-(2,2,2-trifluoroethyl)-3H-imidazo[4,5-b]pyridin-5-yl)pyrrolo[2,1-f][1,2,4]triazine-2,4-diamine], for which the IC50 came out at 1.2 nM.

Turning to `Cc1nc2ccc(-c3ccn4nc(N[C@H]5CC[C@](C)(O)CC5)nc(N)c34)nc2n1CCF` [Compound 995, (1r,4r)-4-((4-Amino-5-(3-(2-fluoroethyl)-2-methyl-3H-imidazo[4,5-b]pyridin-5-yl)pyrrolo[2,1-f][1,2,4]triazin-2-yl)amino)-1-methylcyclohexan-1-ol], the IC50 amounted to 0.8 nM.

With `CC(=O)N1CC[C@H](Nc2nc(N)c3c(-c4ccc5nc(C)n(CCF)c5n4)ccn3n2)[C@H](F)C1` [Compound 996, 1-((3R,4S)-4-((4-Amino-5-(3-(2-fluoroethyl)-2-methyl-3H-imidazo[4,5-b]pyridin-5-yl)pyrrolo[2,1-f][1,2,4]triazin-2-yl)amino)-3-fluoropiperidin-1-yl)ethan-1-one], the IC50 was determined as 1.8 nM.

On to `Cc1nc2ccc(-c3ccn4nc(N[C@H]5CCN(C6COC6)C[C@H]5F)nc(N)c34)nc2n1CCF` [Compound 997, N^2-((3R,4S)-3-Fluoro-1-(oxetan-3-yl)piperidin-4-yl)-5-(3-(2-fluoroethyl)-2-methyl-3H-imidazo[4,5-b]pyridn-5-yl)pyrrolo[2,1-f][1,2,4]triazine-2,4-diamine], for which the IC50 stood at 1.7 nM.

As to `CC(=O)N1CC[C@@H](Nc2nc(N)c3c(-c4ccc5nc(C)n(CCF)c5n4)ccn3n2)C(F)(F)C1` [Compound 998, (R)-1-(4-((4-Amino-5-(3-(2-fluoroethyl)-2-methyl-3H-imidazo[4,5-b]pyridin-5-yl)pyrrolo[2,1-f][1,2,4]triazin-2-yl)amino)-3,3-difluoropiperidin-1-yl)ethan-1-one], the IC50 turned out to be 9.2 nM.

Consider `Cc1nc2ccc(-c3ccn4nc(N[C@@H]5CCN(C6COC6)CC5(F)F)nc(N)c34)nc2n1CCF` [Compound 999, (R)—N^2-(3,3-Difluoro-1-(oxetan-3-yl)piperidin-4-yl)-5-(3-(2-fluoroethyl)-2-methyl-3H-imidazo[4,5-b]pyridin-5-yl)pyrrolo[2,1-f][1,2,4]triazine-2,4-diamine], for which the IC50 is 1.8 nM.

For `Nc1nc(N[C@H]2CC[C@@H](OC(F)F)CC2)nn2ccc(-c3ccc4nnn(CC(F)F)c4n3)c12` [Compound 1000, 5-(3-(2,2-Difluoroethyl)-3H-[1,2,3]triazolo[4,5-b]pyridin-5-yl)-N^2-(cis-4-(difluoromethoxy)cyclohexyl)pyrrolo[2,1-f][1,2,4]triazine-2,4-diamine], the IC50 turned out to be 5.1 nM.

As for `CNc1nc(NC2CCC(F)(F)CC2)nn2ccc(-c3ccc4ncn(CCF)c4n3)c12` [Compound 1001, N^2-(4,4-Difluorocyclohexyl)-5-(3-(2-fluoroethyl)-3H-imidazo[4,5-b]pyridin-5-yl)-N^4-methylpyrrolo[2,1-f][1,2,4]triazine-2,4-diamine], the IC50 worked out at 2.2 nM.

By IC50 is commonly meant the concentration that inhibits the measured activity by half.
